ChEMBL document CHEMBL1201862, “PubChem BioAssay data set” (2004)
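Step 1: Grow cells in 96-well plates. Step 2: Expose to compound for 48 hours at 5 concentrations. Step 3: Interpolate endpoints linearly; if unreached, use highest concentration. GI50 marks 50% less growth.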 The source made the active and inactive calls. No stated cut-off is given here; in the data, active = GI50 up to about 1.1 µM and inactive = higher.

Assays:
Assay in all cases: inhibition of tumour cell growth, NCI panel, 48 h
Hs-578T = system: Hs-578T
LXFL 529 = system: LXFL 529
DMS-273 = system: DMS-273
XF498 = system: XF498
DMS-114 = system: DMS-114
DLD-1 = system: DLD-1
SNB-78 = system: SNB-78
HOP-18 = system: HOP-18
RXF 631 = system: RXF 631

For Cn1c(=O)nc2n(CCO)ccnc-2c1=O, the GI50 (Hs-578T) was 91.4 µM (inactive).

COc1ccc(C2=NN(c3ccccc3)C[N+](c3ccc(C)cc3)=N2)cc1 was tested, and the GI50 (LXFL 529) was 16.3 µM (inactive), the GI50 (DMS-273) was > 10 µM (inactive) and the GI50 (XF498) was 25.3 µM (inactive). For the same molecule, the GI50 (DMS-114) was 24.7 µM (inactive), the GI50 (DLD-1) was 40.6 µM (inactive) and the GI50 (SNB-78) was 27.9 µM (inactive).

For O=C1C=CC2(C=C1)CCC(=O)O2, the GI50 (Hs-578T) was 10.6 µM (inactive).

For CN(C)P(=O)(/C(N)=N/Nc1ccc([N+](=O)[O-])cc1)N(C)C, the GI50 (LXFL 529) was > 100 µM (inactive), the GI50 (DMS-273) was > 100 µM (inactive) and the GI50 (XF498) was > 100 µM (inactive). The GI50 (DMS-114) was 61.7 µM (inactive), the GI50 (DLD-1) was > 100 µM (inactive) and the GI50 (SNB-78) was > 100 µM (inactive).

With O=C1c2ccccc2C(=O)N1n1c(Cc2ccc(Cl)cc2)n[nH]c1=O the GI50 (Hs-578T) was > 100 µM (inactive).

In the case of CNC(SC)=C1C(=O)OC(C)(C)OC1=O, the GI50 (LXFL 529) is reported as > 100 µM (inactive), the GI50 (DMS-273) is reported as 0.499 µM (active) and the GI50 (XF498) is reported as > 100 µM (inactive). For the same molecule, the GI50 (DMS-114) was 34.8 µM (inactive), the GI50 (HOP-18) was > 100 µM (inactive) and the GI50 (DLD-1) was 22.2 µM (inactive). For the same molecule, the GI50 (SNB-78) was 36.4 µM (inactive).

With Cc1c(O)c(=O)ccn1CCc1c[nH]c2ccccc12 the GI50 (Hs-578T) was 11.7 µM (inactive).

In the case of Cc1nnc2n1-c1ccccc1C(=S)N1CSCC21 (centres undefined), the GI50 (Hs-578T) is reported as > 100 µM (inactive).

With CC12CCC(=O)N1c1cccnc1N2 (centres undefined) the GI50 (LXFL 529) was > 100 µM (inactive), the GI50 (XF498) was > 100 µM (inactive) and the GI50 (DMS-114) was > 100 µM (inactive). The GI50 (DLD-1) was > 100 µM (inactive) and the GI50 (SNB-78) was > 100 µM (inactive).

With CCC1CC(C)C(O)/C=C/C=C/CC(C)OC(=O)CC(O)C(OC)C1OC1OC(C)CC(O)(C(C)=O)C1O (centres undefined) the GI50 (Hs-578T) was 19.7 µM (inactive).

For O=C(CC(NC(=O)OCc1ccccc1)C(=O)NC1Cc2ccccc2C1=O)OCc1ccccc1 (centres undefined), the GI50 (Hs-578T) was 84.3 µM (inactive).

With COC1C(OC(=O)c2ccc(C)[nH]2)C(O)C(Oc2ccc3c(O)c(NC(=O)c4c[nH]c(C(=O)Nc5c(O)c6ccc(OC7OC(C)(C)C(OC)C(OC(=O)c8ccc(C)[nH]8)C7O)c(C)c6oc5=O)c4C)c(=O)oc3c2C)OC1(C)C (centres undefined) the GI50 (LXFL 529) was 1.07 µM (active), the GI50 (DMS-273) was 2.86 µM (inactive) and the GI50 (XF498) was 2.18 µM (inactive). The GI50 (DMS-114) was 2.02 µM (inactive), the GI50 (HOP-18) was 0.596 µM (active) and the GI50 (DLD-1) was 1.86 µM (inactive). The GI50 (SNB-78) was 1.56 µM (inactive).

CCOC(=O)C(NC(=O)Nc1ccc(Cl)c(Cl)c1)C(F)(F)F (centres undefined) was tested, and the GI50 (Hs-578T) was 40.5 µM (inactive).

In the case of COc1ccc(/C=C2\N=C(c3ccccc3)N(NC3=NC(=O)CC(=O)N3)C2=O)cc1, the GI50 (Hs-578T) is reported as > 100 µM (inactive).

O=C1C=CC2(C=C1)O[C@H](COCc1ccccc1)[C@@H](COCc1ccccc1)O2 was tested, and the GI50 (Hs-578T) was 1.75 µM (inactive).

With COc1cccc(Nc2nc(N)nc(N)c2N=O)c1 the GI50 (Hs-578T) was 14.5 µM (inactive).

O=C1c2ccccc2C(=O)C2C3c4ccccc4C(c4ccccc43)C12 (centres undefined) was tested, and the GI50 (LXFL 529) was 15.3 µM (inactive), the GI50 (DMS-273) was 19.1 µM (inactive) and the GI50 (DMS-114) was 16.8 µM (inactive). The GI50 (DLD-1) was > 100 µM (inactive) and the GI50 (SNB-78) was 18.7 µM (inactive).

CCOC(=O)c1sc2c(c1OC(=O)c1ccccc1)c(=O)n(-c1ccccc1)c(=S)n2-c1ccccc1 was tested, and the GI50 (Hs-578T) was 23.6 µM (inactive).

In the case of O=C1C=Cc2c(Br)sc(Br)c21, the GI50 (Hs-578T) is reported as 29.2 µM (inactive).

In the case of NC(=O)N/N=C(/c1nc2ccc([N+](=O)[O-])cc2nc1O)C(O)c1ccco1 (centres undefined), the GI50 (LXFL 529) is reported as 36.8 µM (inactive), the GI50 (DMS-273) is reported as 20.5 µM (inactive) and the GI50 (XF498) is reported as > 100 µM (inactive). The GI50 (DMS-114) was 28.8 µM (inactive), the GI50 (RXF 631) was 48.2 µM (inactive) and the GI50 (DLD-1) was > 100 µM (inactive). For the same molecule, the GI50 (SNB-78) was > 100 µM (inactive).

In the case of CC1=Nc2ccccc2S(=O)(=O)N1, the GI50 (LXFL 529) is reported as > 100 µM (inactive), the GI50 (DMS-273) is reported as > 100 µM (inactive) and the GI50 (DMS-114) is reported as > 100 µM (inactive). For the same molecule, the GI50 (HOP-18) was > 100 µM (inactive), the GI50 (DLD-1) was > 100 µM (inactive) and the GI50 (SNB-78) was > 100 µM (inactive).

O=C(O)C/N=C(\C(=N\CC(=O)O)c1ccccc1)c1ccccc1 was tested, and the GI50 (Hs-578T) was > 100 µM (inactive).

With CC(=O)NCCC1CN(C(=O)/C=C/I)c2ccccc21 (centres undefined) the GI50 (Hs-578T) was 9.66 µM (inactive).

For CN1CCN(Cn2nc(-c3ccccc3)n(/N=C/c3ccc(-c4ccc(Cl)cc4Cl)o3)c2=S)CC1, the GI50 (Hs-578T) was 7.91 µM (inactive).

O=C(CCN1CCN(c2ccccc2)CC1)N1CCc2c([nH]c3ccccc23)C1c1cccnc1 (centres undefined) was tested, and the GI50 (LXFL 529) was 16.3 µM (inactive), the GI50 (DMS-273) was 17.5 µM (inactive) and the GI50 (DMS-114) was 13.2 µM (inactive). The GI50 (HOP-18) was 18.5 µM (inactive), the GI50 (DLD-1) was 18.4 µM (inactive) and the GI50 (SNB-78) was 16.1 µM (inactive).

COc1ccc(Cl)cc1NC(=O)O/N=C(\Cl)C(C)C was tested, and the GI50 (Hs-578T) was 23.7 µM (inactive).

In the case of CCCCCCCCCCCCCCCCNc1nc(=O)n(C2OC(C)C(O)C2O)cc1F (centres undefined), the GI50 (Hs-578T) is reported as 21.8 µM (inactive).

For Cc1ccc(S(=O)(=O)Nn2c(S)c(C#N)c(-c3ccc([N+](=O)[O-])cc3)c(C#N)c2=O)cc1, the GI50 (Hs-578T) was 32.4 µM (inactive).

For O/N=C(/CC(O)(C(F)(F)F)C(F)(F)F)c1ccccc1, the GI50 (Hs-578T) was > 10 µM (inactive).

For COc1ccc2nc3c([N+](=O)[O-])ccc4c3c(c2c1)N=CN4CCN(C)C, the GI50 (Hs-578T) was 6.73 µM (inactive).

For O=c1[nH][nH]c(=O)[nH]1, the GI50 (DMS-273) was > 100 µM (inactive), the GI50 (XF498) was > 100 µM (inactive) and the GI50 (DLD-1) was > 100 µM (inactive). The GI50 (SNB-78) was > 100 µM (inactive).

With OCCNc1ncnc2c1ncn2C1OC(CO)C(O)C1O (centres undefined) the GI50 (Hs-578T) was 48 µM (inactive).

CCOC(=O)c1[nH]c(Br)c(-c2ccc(OC)c(OC)c2)c1Br was tested, and the GI50 (Hs-578T) was 0.0369 µM (active).

With CC1=C(CO)C(=O)O[C@@H]([C@@H](C)[C@H]2CC[C@H]3[C@@H]4C[C@@H](O)[C@@]5(O)CC=CC(=O)[C@]5(C)[C@H]4CC[C@]23C)C1 [JABOROSALACTONE D] the GI50 (Hs-578T) was 35.7 µM (inactive).

In the case of CO[C@H]1[C@@H](O)[C@@H](C)O[C@@H](O[C@H]2CC[C@@]3(C)[C@H](CC[C@@H]4[C@@H]3CC[C@]3(C)[C@@H](C5=CC(=O)OC5)CC[C@]43O)C2)[C@@H]1O [ODOROSIDE H], the GI50 (Hs-578T) is reported as 0.00454 µM (active).
